Assay results from ChEMBL document CHEMBL1201862, “PubChem BioAssay data set” (2004).
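A five-concentration, 48-hour dose response in 96-well plates underlies each endpoint, interpolated linearly between surrounding concentrations. GI50 = concentration required for 50% inhibition of growth.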 The source made the active and inactive calls. Cut-off read from the data, not from the text of the source: active = GI50 up to about 1.1 µM and inactive = higher.

Assays:
Test in all cases: growth of human tumour cells (NCI), 48 h
DLD-1 = system: DLD-1
IGROV-1 = system: IGROV-1
SK-MEL-2 = system: SK-MEL-2
LOX IMVI = system: LOX IMVI
MOLT-4 = system: MOLT-4
TK-10 = system: TK-10
HCT-15 = system: HCT-15
OVCAR-8 = system: OVCAR-8
NCI-H460 = system: NCI-H460
RPMI-8226 = system: RPMI-8226
A549 = system: A549
A498 = system: A498
OVCAR-5 = system: OVCAR-5
UACC-257 = system: UACC-257
HOP-92 = system: HOP-92
UO-31 = system: UO-31
SNB-78 = system: SNB-78
NCI-H522 = system: NCI-H522
NCI-H23 = system: NCI-H23
UACC-62 = system: UACC-62
HCT-116 = system: HCT-116
LXFL 529 = system: LXFL 529
SF-539 = system: SF-539
SK-OV-3 = system: SK-OV-3
NCI-H226 = system: NCI-H226
SN12C = system: SN12C
COLO 205 = system: COLO 205
SR = system: SR
KM12 = system: KM12
M14 = system: M14
M19-MEL = system: M19-MEL
SK-MEL-5 = system: SK-MEL-5
HT-29 = system: HT-29
OVCAR-4 = system: OVCAR-4
CCRF-CEM = system: CCRF-CEM
Malme-3M = system: Malme-3M
SNB-75 = system: SNB-75
SF-295 = system: SF-295
HOP-62 = system: HOP-62
OVCAR-3 = system: OVCAR-3
SF-268 = system: SF-268
DMS-273 = system: DMS-273
DMS-114 = system: DMS-114
KM-20L2 = system: KM-20L2
SK-MEL-28 = system: SK-MEL-28
786-0 = system: 786-0
HL-60 = system: HL-60
EKVX = system: EKVX
ACHN = system: ACHN
U-251 = system: U-251
K562 = system: K562
HOP-18 = system: HOP-18
SNB-19 = system: SNB-19
SW-620 = system: SW-620
RXF 393 = system: RXF 393

**Q.** Which results are given for CCn1c(SC(C)C(=O)c2c(C)n(C)n(-c3ccccc3)c2=O)nc2ccccc2c1=O (configuration not stated)?
**A.** GI50 (DLD-1): > 100 µM (inactive); GI50 (IGROV-1): > 100 µM (inactive); GI50 (SK-MEL-2): > 100 µM (inactive); GI50 (LOX IMVI): > 100 µM (inactive); GI50 (MOLT-4): > 100 µM (inactive); GI50 (TK-10): > 100 µM (inactive); GI50 (HCT-15): > 100 µM; GI50 (OVCAR-8): > 100 µM (inactive); GI50 (NCI-H460): > 100 µM (inactive); GI50 (RPMI-8226): 95.1 µM (inactive); GI50 (A549): > 100 µM (inactive); GI50 (A498): > 100 µM (inactive); GI50 (OVCAR-5): > 100 µM (inactive); GI50 (UACC-257): > 100 µM (inactive); GI50 (HOP-92): 4.47 µM (inactive); GI50 (UO-31): > 100 µM (inactive); GI50 (SNB-78): > 100 µM (inactive); GI50 (NCI-H522): 84.1 µM (inactive); GI50 (NCI-H23): > 100 µM (inactive); GI50 (UACC-62): > 100 µM (inactive); GI50 (HCT-116): > 100 µM (inactive); GI50 (LXFL 529): > 100 µM (inactive); GI50 (SF-539): > 100 µM (inactive); GI50 (SK-OV-3): > 100 µM (inactive); GI50 (NCI-H226): > 100 µM (inactive); GI50 (SN12C): > 100 µM (inactive); GI50 (COLO 205): > 100 µM (inactive); GI50 (SR): > 100 µM (inactive); GI50 (KM12): > 100 µM (inactive); GI50 (M14): > 100 µM (inactive); GI50 (M19-MEL): > 100 µM (inactive); GI50 (SK-MEL-5): > 100 µM (inactive); GI50 (HT-29): > 100 µM (inactive); GI50 (OVCAR-4): > 100 µM (inactive); GI50 (CCRF-CEM): > 100 µM (inactive); GI50 (Malme-3M): > 100 µM (inactive); GI50 (SNB-75): > 100 µM (inactive); GI50 (SF-295): > 100 µM (inactive); GI50 (HOP-62): > 100 µM (inactive); GI50 (OVCAR-3): > 100 µM (inactive); GI50 (SF-268): > 100 µM (inactive); GI50 (DMS-273): > 100 µM (inactive); GI50 (DMS-114): > 100 µM (inactive); GI50 (KM-20L2): > 100 µM (inactive); GI50 (SK-MEL-28): > 100 µM (inactive); GI50 (786-0): > 100 µM (inactive); GI50 (HL-60): > 100 µM (inactive); GI50 (EKVX): 36.4 µM (inactive); GI50 (ACHN): > 100 µM (inactive); GI50 (U-251): > 100 µM (inactive)

**Q.** How did the GI50 (DLD-1) turn out when CCC1(CC)C(=O)NC(=O)NC1=S was run?
**A.** Its GI50 is > 100 µM (inactive).

**Q.** And the GI50 (K562)?
**A.** The GI50 was > 100 µM (inactive).

**Q.** What about the GI50 (IGROV-1) of the same compound?
**A.** Its GI50 is > 100 µM (inactive).

**Q.** And the GI50 (SK-MEL-2)?
**A.** Its GI50 is > 100 µM (inactive).

**Q.** And the GI50 (LOX IMVI)?
**A.** Its GI50 is > 100 µM (inactive).

**Q.** And the GI50 (HOP-18)?
**A.** Its GI50 is > 100 µM (inactive).

**Q.** And the GI50 (MOLT-4)?
**A.** The GI50 was > 100 µM (inactive).

**Q.** What about the GI50 (TK-10) of the same compound?
**A.** The GI50 was > 100 µM (inactive).

**Q.** What about the GI50 (HCT-15) of the same compound?
**A.** The GI50 was greater than 100 µM.

**Q.** And the GI50 (OVCAR-8)?
**A.** The GI50 was > 100 µM (inactive).

**Q.** And the GI50 (NCI-H460)?
**A.** The GI50 was > 100 µM (inactive).

**Q.** And the GI50 (RPMI-8226)?
**A.** Its GI50 is > 100 µM (inactive).

**Q.** What about the GI50 (A549) of the same compound?
**A.** The GI50 was > 100 µM (inactive).

**Q.** And the GI50 (A498)?
**A.** Its GI50 is > 100 µM (inactive).

**Q.** And the GI50 (OVCAR-5)?
**A.** Its GI50 is > 100 µM (inactive).

**Q.** What about the GI50 (UACC-257) of the same compound?
**A.** The GI50 was > 100 µM (inactive).

**Q.** And the GI50 (HOP-92)?
**A.** The GI50 was > 100 µM (inactive).

**Q.** And the GI50 (SNB-19)?
**A.** The GI50 was > 100 µM (inactive).

**Q.** What about the GI50 (UO-31) of the same compound?
**A.** Its GI50 is > 100 µM (inactive).

**Q.** And the GI50 (SNB-78)?
**A.** Its GI50 is > 100 µM (inactive).

**Q.** And the GI50 (NCI-H522)?
**A.** The GI50 was > 100 µM (inactive).

**Q.** What about the GI50 (NCI-H23) of the same compound?
**A.** The GI50 was > 100 µM (inactive).

**Q.** What about the GI50 (UACC-62) of the same compound?
**A.** Its GI50 is > 100 µM (inactive).

**Q.** What about the GI50 (HCT-116) of the same compound?
**A.** Its GI50 is > 100 µM (inactive).

**Q.** And the GI50 (LXFL 529)?
**A.** Its GI50 is > 100 µM (inactive).

**Q.** And the GI50 (SF-539)?
**A.** The GI50 was > 100 µM (inactive).

**Q.** And the GI50 (SK-OV-3)?
**A.** Its GI50 is > 100 µM (inactive).

**Q.** What about the GI50 (NCI-H226) of the same compound?
**A.** Its GI50 is > 100 µM (inactive).

**Q.** What about the GI50 (SN12C) of the same compound?
**A.** The GI50 was > 100 µM (inactive).

**Q.** And the GI50 (COLO 205)?
**A.** The GI50 was > 100 µM (inactive).

**Q.** And the GI50 (M14)?
**A.** The GI50 was > 100 µM (inactive).

**Q.** What about the GI50 (M19-MEL) of the same compound?
**A.** Its GI50 is > 100 µM (inactive).

**Q.** What about the GI50 (HT-29) of the same compound?
**A.** Its GI50 is > 100 µM (inactive).

**Q.** What about the GI50 (OVCAR-4) of the same compound?
**A.** Its GI50 is > 100 µM (inactive).

**Q.** What about the GI50 (SW-620) of the same compound?
**A.** Its GI50 is > 100 µM (inactive).

**Q.** What about the GI50 (CCRF-CEM) of the same compound?
**A.** Its GI50 is > 100 µM (inactive).

**Q.** What about the GI50 (Malme-3M) of the same compound?
**A.** The GI50 was > 100 µM (inactive).

**Q.** What about the GI50 (SNB-75) of the same compound?
**A.** The GI50 was > 100 µM (inactive).

**Q.** What about the GI50 (SF-295) of the same compound?
**A.** Its GI50 is > 100 µM (inactive).

**Q.** And the GI50 (RXF 393)?
**A.** The GI50 was > 100 µM (inactive).

**Q.** And the GI50 (HOP-62)?
**A.** Its GI50 is > 100 µM (inactive).

**Q.** What about the GI50 (OVCAR-3) of the same compound?
**A.** Its GI50 is > 100 µM (inactive).

**Q.** What about the GI50 (SF-268) of the same compound?
**A.** Its GI50 is > 100 µM (inactive).

**Q.** What about the GI50 (DMS-273) of the same compound?
**A.** The GI50 was > 100 µM (inactive).

**Q.** And the GI50 (DMS-114)?
**A.** The GI50 was > 100 µM (inactive).

**Q.** What about the GI50 (KM-20L2) of the same compound?
**A.** The GI50 was > 100 µM (inactive).

**Q.** And the GI50 (SK-MEL-28)?
**A.** Its GI50 is > 100 µM (inactive).

**Q.** And the GI50 (786-0)?
**A.** The GI50 was > 100 µM (inactive).

**Q.** What about the GI50 (HL-60) of the same compound?
**A.** The GI50 was > 100 µM (inactive).

**Q.** And the GI50 (EKVX)?
**A.** Its GI50 is > 100 µM (inactive).

**Q.** And the GI50 (ACHN)?
**A.** The GI50 was > 100 µM (inactive).

**Q.** What about the GI50 (U-251) of the same compound?
**A.** Its GI50 is > 100 µM (inactive).
